Reference: patent US20020044973A1, “MICROPARTICLES AND THEIR USE IN CANCER TREATMENT” (priority 1997, published 2002)
Converted amounts (≈) assume the structure as drawn.

What was measured:
C170HM2 = assay: Example 5: liver tumour weight in tumour-bearing mice, loaded HSAMs vs free doxorubicin; assay type: in vivo; settings: 0.24 mg/kg loaded HSAMs or 0.25 mg/kg free doxorubicin; dosing at day 27, termination at day 41; 12 mice per group
Experimental: 0.24 mg/kg doxorubicin-loaded HSAMs (drug loading approx. 1% w/w) were administered to a group of tumour-bearing mice (C170HM2). A further group received HSAMs, at a protein concentration of 100 mg/ml, as a control. A third group received 0.25 mg/kg free doxorubicin. There were 12 mice per group. Dosing was at day 27, termination at day 41.
For the control, the mean liver tumour weight was c. 1.3 g. Following administration of free doxorubicin, the mean weight was c. 0.3 g.

MCF7/Dox cell line = assay: Cytotoxicity in doxorubicin-resistant P-glycoprotein expressing daughter cell line (cell counting, Coulter Counter); assay type: cell-based; settings: Homo sapiens, 24 hours incubation, further 72 hours before counting, microspheres expressed as μg doxorubicin per ml
Experimental: More specifically, the experiment compared the cytotoxicity of a novel preparation of doxorubicin covalently-linked to a human serum albumin microsphere carrier between 2 and 3 μm in diameter on a doxorubicin-sensitive human breast cancer cell line and its doxorubicin-resistant P-glycoprotein expressing daughter cell line. […] The human MCF7 cell line and its doxorubicin-resistant daughter cell line, MCF7/Dox were used.
The medium was then changed, cells were incubated for a further 72 hours before harvesting and counting with a Coulter Counter.

What does the source list for `COc1cccc2c1C(=O)c1c(O)c3c(c(O)c1C2=O)C[C@@](O)(C(=O)CO)C[C@@H]3O[C@H]1C[C@H](N)[C@H](O)[C@H](C)O1` [doxorubicin]?
mean liver tumour weight (C170HM2): ~0.3 g; IC50 (MCF7/Dox cell line): 0.387 µg/mL (≈ 0.712 µM)
